This note sets out measurements from a melting point compilation (Tetko et al.; mined from patent text by program, amines drawn as free bases though some values may be those of a salt).

Regarding `CC(=O)C1CCC2C3CCC4CC(OC(=O)C(F)(F)F)CCC4(C)C3C(=O)CC12C` (centres undefined), the melting point lay within 107 to 108 °C.
The value for `O=C1CC(C(=O)O)CC(O)=C1N=Nc1ccccc1` (centres undefined) was 218 °C.
The value for `CC(=O)C(=Cc1cc(O)c(O)c([N+](=O)[O-])c1)c1ccc(C)cc1` was 189 to 194 °C.
The same measure for `O=C(O)CCCNC(=O)COc1ccccc1`: 91 to 94 °C; for `C[C@]12CC[C@H](O)CC1=CCC1C2CC[C@@]2(C)C1CC[C@@H]2C1=CC(=O)OC1` (some centres undefined): 286 to 287 °C; for `CCCOc1ccccc1C1=NC(=O)C2=NC(C(F)(F)F)=NC2=N1`: 255 to 260 °C.
Take `CCOC(=O)c1ccc(/C=C/C(=O)O)cn1`: the melting point was 201 to 202 °C.
The same measure for `CCCN(Cc1ccc(-c2ccccc2-c2nnnn2C(c2ccccc2)(c2ccccc2)c2ccccc2)cc1)c1nc(C)cnc1C(=O)OCC`: 110 to 112 °C; for `COc1ccc(S(C)(=O)=O)cc1C(=O)O`: 189 to 191 °C; for `COC(=O)c1ccc(CNS(C)(=O)=O)cc1N`: 120 to 121 °C.
The value for `CC1(C)CCC(Cc2ccc(Cl)cc2)C1(O)COS(C)(=O)=O` (centres undefined) was 113 to 114 °C.
The same measure for `CON=Cc1ccc2c(c1)ncn2-c1cccc(-c2cccs2)c1`: 184 to 185 °C.
As to `Cc1c(C)c2c(c(C)c1O)C(=O)C(C)(C)O2`, the melting point was in the range of 142 to 144 °C.
Consider `O=C1CCC(N2C(=O)c3cccc(CNC(=O)c4cncnc4)c3C2=O)C(=O)N1` (centres undefined), for which the melting point is > 260 °C.
The compound `CCOC(=O)C1CCN(S(C)(=O)=O)CC1` yielded a melting point of 91 to 92 °C.
The value for `O=C(c1cccnc1)C(O)c1ccccc1Cl` (centres undefined) was 92 °C.
The value for `CC(C)(C)OC(=O)N1CCC2(CC1)CC(c1ccc(CNS(C)(=O)=O)c(F)c1)=NO2` was 178 to 182 °C; that for `CCOC(=O)C=CN1CCCC1` was 37.5 to 39.5 °C; that for `CCCNCc1ccc(-c2cc3ncnc(Nc4ccc5[nH]ccc5c4)c3s2)cc1` was 190 to 205 °C.
The value for `CSc1ccc(C(=O)Nc2cccnc2C(=O)Nc2ccc(Cl)cn2)c(OCCN)c1` was 158 to 159 °C; that for `O=C(O)C1CCOc2c(Cl)cc(-c3ccccc3)cc21` (centres undefined) was 187 to 188 °C.
On to `COc1cc(OC)cc(C(=CC#N)c2ccc3c(c2)nc(C)n3C)c1`, for which the melting point was 199 to 201 °C.
In the case of `O=C(O)CCc1cn(Cc2ccc3cc(OCc4cccnc4)ccc3c2)cc1-c1ccccc1`, the melting point lay in the range of 158 to 159 °C.
`COC(=O)C1NC(c2ccc(Cl)cc2)C/C(=N\OS(C)(=O)=O)C1(Cl)Cl` (centres undefined) gave a melting point of 60 to 62 °C.
As for `CCCCCN1C(=O)C2(COc3cc4c(cc32)OCO4)c2c(C(=O)Nc3cccc(OC)c3)cccc21` (centres undefined), the melting point lay in the range of 173 to 175 °C.
The value for `O=C(O)c1ccc2c(c1)C(=O)N(c1ccccc1C(=O)O)C2=O` was 262 to 264 °C.
The same measure for `O=c1cc(COC2CCCCO2)occ1OCCCCCBr` (centres undefined): 140 °C; for `COC(=O)c1ccc(OCc2ccccc2)c(C(C)=O)c1`: 68 to 72 °C.
The value for `O=c1ccc(-c2ccc3c(c2)CCN(C2CCC2)CC3)n[nH]1` was 250 to 251 °C; that for `Cc1oc(-c2ccccc2)nc1COc1ccc(C(=O)c2ccccc2)c(O)c1` was 115 to 116 °C.
Consider `CC1Sc2c(C(=O)O)c(=O)c3cc(Cl)c(N4CCN(C)CC4)cc3n21` (centres undefined), for which the melting point was 250 to 255 °C.
The same measure for `O=C(O)CCc1cc(OCCCc2cn(-c3ccc(C(F)(F)F)cn3)nc2-c2ccccc2)nn1-c1ccccc1`: 175 to 176 °C.
The same measure for `Cc1oc(-c2ccccc2)nc1COc1cc(CO)on1`: 99 to 100 °C; for `CC1(C)Oc2ccc(C#N)cc2[C@@H](n2ncccc2=O)[C@@H]1O` (relative stereo): 211 to 215 °C; for `CCNC(=O)N1CC(Oc2cccc(C(F)(F)F)c2)C1`: 125 to 126 °C.
The same measure for `COc1ccccc1CNc1ccc2cc(Nc3nc(C)no3)ccc2n1`: 175 °C.
As for `CCN(C)CCOc1ccc(/C=C/C(=O)O)cc1`, the melting point turned out to be 206 °C.
The same measure for `CCCCCCCc1ccc([C@H]2CC[C@H](O)CC2)cc1`: 80.2 to 82.5 °C; for `CCOC(=O)N1CCN(c2nc(=O)c3cccnc3s2)CC1`: 139 to 140 °C.
In turn, `N#Cc1cnn(-c2ccc(OC(F)(F)F)cc2Cl)c1Br` registered a melting point of 83 °C.
In turn, `COCCc1cc(N2CCN(C)CC2)n2nc(SC)c(S(=O)(=O)c3ccccc3)c2n1` had a melting point of 160 to 161 °C.
The same measure for `CC(Cl)(Cl)C(NC(=O)c1ccc(C(F)(F)F)cc1)NC(=NC#N)Nc1ccc(Cl)nc1` (centres undefined): 210 to 211 °C; for `CCc1nc2c(-c3ccc(OC)cc3Cl)ncnc2n1C(C1CC1)C1CC1`: 139 to 140 °C.
The value for `COc1cc2c(cc1OC)N(C(=O)OCc1ccccc1)C(C)C(=CO)C2=O` (centres undefined) was 106 to 110 °C; that for `Cc1cc(C#N)cn2cc(-c3ccc(Br)o3)nc12` was 204 to 205 °C; that for `CCCC1(CC(=O)OCC)OCCc2c1[nH]c1c(C)cc(F)c(Br)c21` (centres undefined) was 137 to 138 °C.
The value for `COc1cc2c(NC3=CC(=O)C(Cl)=CC3=O)ncnc2cc1OCC1CCCCO1` (centres undefined) was 215 to 220 °C; that for `Clc1ccc(Oc2cncc3sc(C4=NCCN4)cc23)cc1` was 154 to 155 °C.
Turning to `O=[N+]([O-])c1cccnc1Oc1nn(Cc2ccccc2F)c2ncccc12`, the melting point lay in the range of 115 to 117 °C.
The same measure for `CC(C)Oc1n[nH]c2nc(Oc3ccc(F)cc3F)ncc12`: 144 to 145 °C; for `CCOC(=O)C(=O)Nc1ccc(OC)cc1[N+](=O)[O-]`: 151 °C.
The value for `CN(C=C(S(=O)(=O)c1ccccc1)S(=O)(=O)c1ccccc1)c1ccc(Cl)cn1` was 205 to 206 °C; that for `Cc1cc(F)ccc1-c1nc(OCCN)nc2c1ccc(=O)n2-c1c(F)cccc1F` was 96 to 99 °C.
The same measure for `CC(=O)Oc1cc2c(cc1OC(C)=O)OCC(c1ccccc1)C2` (centres undefined): 102 °C; for `CCOCc1nc2c(N)nc(C)c(C)c2n1CCNC(=O)N1CCOCC1`: 179 to 181 °C.
The compound `COc1cccc([C@H]2O[C@H](CC(=O)Nc3cc(C(=O)O)ccc3F)C(=O)N(CC(C)(C)COC(C)=O)c3ccc(Cl)cc32)c1OC` had a melting point of 146 to 149 °C.
The value for `c1ccc(C2CC3(CC(c4ccccc4)N2)OCCO3)cc1` (centres undefined) was 125 to 127 °C.
The value for `CCc1cc(C(=O)c2ccccc2Cl)c(-n2c(CNC(=O)c3cc4ccccc4n3CC(=O)O)nnc2C(F)(F)F)s1` was 200 to 203 °C; that for `CN(C)N(CCC(N)=O)C(N)=O` was 173 to 174 °C; that for `CS(=O)(=O)c1ccc(-c2nc(C(F)(F)F)nc(Cl)c2-c2ccccc2)cc1` was 156 to 159 °C.
The same measure for `NC(C=C(Cc1ccccc1)CP(=O)(O)O)C(=O)O` (centres undefined): 196 to 198 °C; for `CCCc1c2c(cc3c(=O)cc(C(=O)OCC)oc13)C(O)C(C(=O)OCC)(C(=O)OCC)O2` (centres undefined): 131 to 133 °C; for `COc1ccc(C(=O)OC2CCN(Cc3ccccc3)CC2)cc1`: 55 to 56 °C.
In the case of `Nc1cccc(-c2cncc(OC[C@@H]3CCN3)c2)c1`, the melting point is 85 to 87 °C.
Regarding `CCc1c(O)ccc2c1CCCC2`, the melting point fell in the range of 94 to 95 °C.
The same measure for `Cc1ccccc1Nc1nc(N(C)c2ccccc2)c2sccc2n1`: 198 to 200 °C; for `COc1cc2c(C)c(C)sc2c(Cl)c1Cl`: 159 to 160 °C.
`CCCC[C@H](NC(=O)OC(C)(C)C)C(=O)CSCc1ccsc1` had a melting point of 43 to 45 °C.
For the compound `O=[N+]([O-])c1ccc(-c2nn(-c3ccccc3)cc2CO)o1`, the melting point lay in the range of 148 to 149 °C.
In turn, `O=C(O)CCC(=O)Nc1ccc(C(=O)N2CCCCc3ccccc32)cc1` came in with a melting point of 192 °C.
The value for `COC(=O)[C@@H](NC(=O)OC(C)(C)C)[C@H](O)c1ccccc1` was 101 to 102 °C; that for `COc1ccc2c(=O)cc(CS(C)=O)oc2c1` (centres undefined) was 157 to 159 °C.
The compound `CN1C(=O)C(Cc2ccncc2)(Cc2ccncc2)NC1=S` came in with a melting point of 225 to 227 °C.
The compound `CNC(=O)c1cc(-c2ccc(OC)cc2)nn(CC(=O)NCc2ccccn2)c1=O` registered a melting point of 195 to 196 °C.
Consider `COc1cc(F)ccc1Oc1c(Cl)nc(C)nc1NS(=O)(=O)c1ccc(C(C)(C)C)cc1`, for which the melting point lay in the range of 164 to 165 °C.
`O=[N+]([O-])c1ccc(OCc2nnco2)cc1` yielded a melting point of 125 to 126 °C.
The same measure for `CCCCNc1cc(C(=O)O)cc(S(N)(=O)=O)c1Nc1ccccc1`: 230 to 231 °C; for `CC(C)(C)N(NC(=O)c1cnccn1)C(=O)c1ccccc1`: 181 to 183 °C; for `CN(C)Cc1ccc(-c2csc(NC(=N)N)n2)o1`: > 200 °C.
The same measure for `COc1cc2nc(CSc3ncnc4[nH]cnc34)n(-c3ccccc3Cl)c(=O)c2cc1OC`: 160 to 180 °C; for `Cc1cccc(C(=O)Nc2cccc3c2C(=O)N(C2CCC(=O)NC2=O)C3=O)c1` (centres undefined): 234 to 236 °C; for `Cc1oc(-c2ccccc2)nc1COc1ccc2c(-c3ccccc3)c(CCl)oc2c1`: 129 to 130 °C.
The same measure for `CC(=O)c1sc(-c2ccncc2)c(C)c1-c1ccncc1`: 117 to 118 °C; for `CC[C@H]1[C@@H](O)[C@H](C)C(=O)N1c1ccc(C#N)c(OC)c1`: 78 to 81 °C.
In the case of `O=C(O)c1c[nH]c2c(-c3ccncc3)c(-c3ccc(F)cc3)nn2c1=O`, the melting point was 215 to 218 °C.
The value for `CC(C)(C(=O)c1ccccc1)C(N)=S` was 172 to 175 °C; that for `CC1CCC(NC(=O)NS(=O)(=O)c2ccc(CCNC(=O)N3CC4CCCCC4C3=O)cc2)CC1` (centres undefined) was 153 to 155 °C; that for `Cc1ccc2c(c1)C(=O)C(=O)N2CCN(C(C)C)C(C)C` was 65 to 67 °C.
`Cc1oc(-c2ccccc2)nc1COc1ccc(C(=O)c2ccccc2O)cc1` had a melting point of 121 to 122 °C.
